Results: a melting point compilation (Tetko et al.; mined from patent text by program, amines drawn as free bases though some values may be those of a salt)

Row | Compound | melting point [°C]
1 | CCOC(=O)c1cc2nc(C)oc2nc1C(=O)OCC | 101 to 103
2 | CC(C)(C)OC(=O)CNS(=O)(=O)c1ccc(N2CCC(NC[C@H](O)c3ccc(O)c(NS(C)(=O)=O)c3)CC2)cc1 | 113 to 115
3 | CSc1nc(O)cc(OC(F)F)n1 | 236 to 237
4 | Cc1cccc(COc2nn3c(-c4ccccc4)nnc3cc2C23CCC(CC2)C3)n1 | 162 to 164
5 | CN(C)c1ccc(O)c2c1CC1CC3C(N(C)C)C(O)=C(C(N)=O)C(=O)C3(O)C(O)=C1C2=O (configuration not stated) | 113
6 | CC1(C)CC(C2CCC(O)CC2)CC(C)(C)N1 (configuration not stated) | 145 to 150
7 | Cn1cncc1C(O)(c1ccc(Cl)cc1)c1ccc2c(c1)C(c1cccc(Cl)c1)=NCc1nnnn1-2 (configuration not stated) | 240
8 | Cn1nc(C#N)c(Nc2cc(Cl)c(Cl)cc2[N+](=O)[O-])n1 | 148 to 150
9 | CCn1cc(C(=O)O)c(=O)c2cc(F)c(N3CCC(N)C3)c(F)c21 (configuration not stated) | 240 to 242
10 | C#CCN(C(C)=O)c1cccc(-c2ccnc3c(C#N)cnn23)c1 | 193 to 195
11 | O=C(NN=Cc1ccc(Cl)cc1)c1[nH]c2ccccc2c1C(=O)Nc1ccccc1 | > 260
12 | COC(=O)CCCc1cc2cc(C(F)(F)F)ccc2n1S(=O)(=O)c1cccc(C(C)(C)C)c1 | 84
13 | O=CN(O)C(CCc1ccccc1)CS(=O)(=O)N1CCN(c2cc(Cl)ncn2)CC1 (configuration not stated) | 155 to 157
14 | O=C(O)c1ccc(C(=O)/C=C/c2ccc(-c3cccs3)cc2F)cc1 | > 260
15 | CC(C)(C)N(CC(O)CONC(=O)NC1CCCCC1)C(=O)NC1CCCCC1 (configuration not stated) | 151 to 152
16 | Cc1c(C)c2c(c(C)c1NCc1ccc(F)cc1)C(c1ccc(F)cc1)C(C)(C)O2 (configuration not stated) | 118 to 120
17 | O=C1OC2CCC1OC2 (configuration not stated) | 56 to 57
18 | COc1cc2sc(-c3ccccn3)nc(=O)c2cc1OC | 236 to 238
19 | O=C(CCCI)ON1C(=O)CCC1=O | 86 to 87
20 | Cc1nn(-c2cc(Sc3ccc(O)cc3)c(Cl)cc2Cl)c(=O)n1C(F)F | 228 to 229
21 | CSC1=CC2=CN(SC)NN2C(SC)=N1 | 165 to 167
22 | CCCCCCCCCCCC(=O)N1CCOC1=O | 63 to 65
23 | Cc1c(O)ccc2oc(-c3ccc(O)cc3)cc12 | 221 to 222
24 | CC(=C1SCSCS1)c1ccc(OCCCN2CCOCC2)cc1 | 95 to 98
25 | CCNC[C@H]1CCc2cc(F)cc(-c3c(Cl)cccc3Cl)c2O1 | > 225
26 | O=C(CCCCCCC(=O)Oc1cc(O)cc(O)c1)Oc1cc(O)cc(O)c1 | 185 to 188
27 | Cc1cccc2c(=O)c3cccc(CBr)c3oc12 | 171 to 172
28 | C=C(F)CCc1cccc(C2(c3ccc(OC(F)F)cc3)N=C(N)N(C)C2=O)c1 (configuration not stated) | 58 to 60

Continued, values first:

Row | melting point [°C] | Compound
29 | 298 to 299 | COc1ccc2ncn(/C=C/C(=O)O)c(=O)c2c1
30 | 99 to 101 | Nc1c(F)cncc1F
31 | 188 to 190 | CCOc1cc(C(=O)OC)nc2cc(OC)c3ncccc3c12
32 | 80 to 81 | COc1ccc(-c2nc(C)cc(Cl)n2)cc1
33 | 205 to 208 | CON1CCC2(CC1)OC(=O)C(c1cc(C)ccc1C)=C2O
34 | 138 to 145 | CCOc1ccc(-n2nc(Sc3ccc(Cl)cc3)c(C)c(C#N)c2=O)cc1
35 | 55 to 58 | CC(C)CCc1c(-c2ccc(S(C)(=O)=O)cc2)cnn(-c2ccc(F)c(Cl)c2)c1=O
36 | 83 to 86 | COC(=O)c1ccc(Cl)cn1
37 | 172 to 174 | CC(=O)Nc1nc(CCc2ccc(CC(=O)O)s2)cs1
38 | 155 to 158 | CC1(C)CC(=O)C(c2cccc(Cl)c2)C(=O)C1
39 | 172 to 174 | COc1ccc(NC(=O)c2ccc([N+](=O)[O-])cc2)c(OC)c1
40 | 284 to 287 | COc1ccc(Cl)cc1-c1c(N)c(=O)[nH]c2cc(Cl)cc(Cl)c12
41 | 137 | ClC(Cl)(Cl)c1cnnc2ccccc12
42 | 178 to 180 | COc1cccc2c1CC(=O)c1cc(C(C)C(N)=O)ccc1S2 (configuration not stated)
43 | 111 to 112 | CC(C)(C)OC(=O)Nc1sc(Cl)nc1Cl
44 | 133 to 134 | CCc1ccc(CC2CNC(=O)O2)cc1 (configuration not stated)
45 | 180 | CCOC(=O)c1cnc2[nH]ncc2c1OCC
46 | 164 to 165 | COC(=O)c1ccc(/C=C/c2nc(-c3ccccc3)oc2C)cc1
47 | 164 to 167 | Nc1nc(Cl)c(N)c(NCCO)n1
